PubChem BioAssay (NCI)
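Method: 48-hour compound exposure of cells in 96-well plates, five concentrations, linear interpolation of endpoints. At the GI50, growth is halved. At the TGI there is no net growth.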

Experiments:
Test in all cases: inhibition of tumour cell growth, NCI panel, 48 h
A498 renal = system: A498 renal
KM12 colon = system: KM12 colon
MALME-3M melanoma = system: MALME-3M melanoma
MDA-MB-435 = system: MDA-MB-435
OVCAR-3 ovarian = system: OVCAR-3 ovarian
RPMI-8226 leukemia = system: RPMI-8226 leukemia
SF-295 CNS = system: SF-295 CNS
SK-MEL-2 melanoma = system: SK-MEL-2 melanoma

Row | SMILES | GI50 (A498 renal) [µM] | TGI (A498 renal) [µM] | GI50 (KM12 colon) [µM] | TGI (KM12 colon) [µM] | GI50 (MALME-3M melanoma) [µM] | TGI (MALME-3M melanoma) [µM] | GI50 (MDA-MB-435) [µM] | TGI (MDA-MB-435) [µM] | GI50 (OVCAR-3 ovarian) [µM] | TGI (OVCAR-3 ovarian) [µM] | GI50 (RPMI-8226 leukemia) [µM] | TGI (RPMI-8226 leukemia) [µM] | GI50 (SF-295 CNS) [µM] | TGI (SF-295 CNS) [µM] | GI50 (SK-MEL-2 melanoma) [µM] | TGI (SK-MEL-2 melanoma) [µM]
1 | COc1ccc(Cl)cc1Nc1nc(C(F)(F)F)ccc1C(=O)N/N=C/c1cccnc1 | 1.23 | > 100 | 3.63 | > 100 | 2.55 | > 100 | 5.63 | > 100 | 0.665 | 6.82 | 2.28 | > 100 | 1.28 | 9.52 | 3.5 | > 100
2 | O=c1ccc(=O)n(-c2ccccc2)[nH]1 |  | > 100 |  | > 100 |  | > 100 |  | > 100 |  | > 100 |  | > 100 |  | > 100 |  | > 100
3 | COc1c(O)cc2c(c1O)C(=O)C1=C(CCCC1)C2=O |  | 47.7 |  | 65.5 |  | 69.3 |  | > 100 |  | > 100 |  | 32.6 |  | 65.2 |  | > 100
4 | Cc1nc(-c2cnc(NC(C)C)n(C)c2=O)ccc1Oc1ccnc(-c2cnn(C)c2)c1 | 4.8 | 38.6 | 5.91 | > 100 | 12.6 | 68.8 | 2.98 | 18.2 | 16.1 | > 100 | 8.49 | 81.7 | 9.14 | 90.3 | 12 | 52.8
5 | C=C1C(=O)O[C@H]2[C@H]1CC/C(Cn1cc(-c3cccc(Cl)c3)nn1)=C\CC[C@@]1(C)O[C@@H]21 | 1.52 | 2.97 | 1.78 | 3.74 | 1.2 | 2.92 | 0.591 | 1.98 | 0.475 | 1.63 | 0.506 | 3.36 | 3.41 | 13 | 1.66 | 3.28
6 | Cc1ccc(-c2nc(N3CCNCC3)c3oc(-c4ccccc4)nc3n2)cc1 | 14.5 | 28.8 | 1.85 | 3.51 | 2.07 | 3.75 | 1.76 | 3.22 | 1.96 | 3.48 | 2.16 | 4.77 | 1.69 | 3.16 | 2.64 | 6.01
7 | COc1cccc(C2=C(c3cn(C)c4cc(F)ccc34)C(=O)NC2=O)c1 | 5.96 | > 25 | > 17.4 | > 25 | > 18 | > 25 | 11.7 | > 25 | > 18.7 | > 25 | > 17.4 | > 25 | > 18.3 | > 25 | > 19.4 | > 25
